According to patent publication US10650228B2, “Devices and methods for analyzing animal behavior” (Children's Medical Center Corporation, priority 2015, dated 2020):

Assays:
mice = experiment: FTIR-generated paw luminance after intraplantar injection of capsaicin to the left hind paw; assay type: in vivo; conditions: 180 minutes after intraplantar injection (5 μl, 0.1%) to the left hind paw; FIG. 14B
Experimental: FIG. 14C illustrates that the luminance values of left and right hind paws are no different in naïve mice 0-30 minutes after being placed in chamber.

mouse = experiment: FTIR imaging of weight bearing after experimental induction of inflammatory pain in the left hind paw; assay type: in vivo; conditions: mouse with induced inflammation in left hind paw, analgesic given before FTIR imaging; FIG. 8 at right
From the text: FIG. 8 illustrates examples of FTIR recordings that detect analgesic efficacy, with great sensitivity. […] For example, the FTIR images are brighter in areas where there is greater relative pressure exerted by the hind paw than in areas where there is less relative pressure exerted.

SMILES	FTIR paw luminance (weight bearing), uninjured right vs injected left hind paw (mice)	weight shift to the uninjured leg (FTIR imaging, analgesic efficacy) (mouse)
COc1cc(CNC(=O)CCCC/C=C/C(C)C)ccc1O [capsaicin]	significantly increased luminance (weight bearing) in the uninjured (right) paw compared to the capsaicin-injected left paw	
O=C(O)Cc1ccccc1Nc1c(Cl)cccc1Cl [diclofenac]		does not shift its weight to the uninjured leg
